Data reported in PubChem BioAssay (NCI).
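Five compound concentrations were applied to cells in 96-well plates for 48 hours; endpoints were derived by simple linear interpolation of the resulting dose-response curve. The concentration for 50% growth inhibition is given as GI50. TGI marks complete inhibition of growth.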

Assays:
Test in all cases: NCI-60 cell line screen, 48 h
ACHN renal = test system: ACHN renal
HCT-15 colon = test system: HCT-15 colon
HL-60(TB) leukemia = test system: HL-60(TB) leukemia
NCI-H226 lung = test system: NCI-H226 lung
NCI/ADR-RES ovarian = test system: NCI/ADR-RES ovarian
OVCAR-4 ovarian = test system: OVCAR-4 ovarian
SF-539 CNS = test system: SF-539 CNS
SK-MEL-5 melanoma = test system: SK-MEL-5 melanoma
SNB-19 CNS = test system: SNB-19 CNS
DU-145 prostate = test system: DU-145 prostate

| SMILES | GI50 (ACHN renal) | TGI (ACHN renal) | GI50 (HCT-15 colon) | TGI (HCT-15 colon) | GI50 (HL-60(TB) leukemia) | TGI (HL-60(TB) leukemia) | GI50 (NCI-H226 lung) | TGI (NCI-H226 lung) | GI50 (NCI/ADR-RES ovarian) | TGI (NCI/ADR-RES ovarian) | GI50 (OVCAR-4 ovarian) | TGI (OVCAR-4 ovarian) | GI50 (SF-539 CNS) | TGI (SF-539 CNS) | GI50 (SK-MEL-5 melanoma) | TGI (SK-MEL-5 melanoma) | GI50 (SNB-19 CNS) | TGI (SNB-19 CNS) | GI50 (DU-145 prostate) | TGI (DU-145 prostate) |
| --- | --- | --- | --- | --- | --- | --- | --- | --- | --- | --- | --- | --- | --- | --- | --- | --- | --- | --- | --- | --- |
| CCN1CCN(c2cc(C)nc(N(CCCNc3ccnc4cc(Cl)ccc34)Cc3ccc4c(c3)OCO4)n2)CC1 | 3.16 µM | 10.6 µM | 2.24 µM | 8.42 µM | 1.9 µM | 4 µM | 32.8 µM | > 100 µM | 3.22 µM | 58.5 µM | 3.05 µM | 25.1 µM | 1.73 µM | 3.21 µM | 1.7 µM | 3.13 µM | 4.16 µM | 52 µM |  |  |
| C[Si](C)(C)C(CCCCSc1ccccc1)(Sc1ccccc1)Sc1ccccc1 |  | > 100 µM |  | > 100 µM |  | > 100 µM |  |  |  |  |  | > 100 µM |  | > 100 µM |  | > 100 µM |  | > 100 µM |  |  |
| C#CCNC(=O)ON1C(=O)CCC1=O |  | > 100 µM |  | > 100 µM |  | > 100 µM |  |  |  |  |  | > 100 µM |  | > 100 µM |  |  |  | > 100 µM |  |  |
| O=C1C2=C(C(=O)c3cnccc31)C1C=CC2CC1 (centres undefined) |  |  | 2.28 µM | 4.94 µM | 1.25 µM | 4.63 µM | 5.74 µM | 16.2 µM | 1.51 µM | 3.5 µM | 0.316 µM | 1.15 µM | 2.27 µM | 4.5 µM | 1.84 µM | 3.85 µM | 5.03 µM | 9.41 µM | 1.8 µM | 3.24 µM |
| NS(=O)(=O)c1ccc(N2N=C3c4ccccc4CC3C2c2cccs2)cc1 (centres undefined) | 19.8 µM | 36.3 µM | 34.7 µM | > 100 µM |  |  |  |  | 17.1 µM | 43.4 µM | > 100 µM | > 100 µM | 17.4 µM | 48.1 µM | 18 µM | 43.5 µM | 34.4 µM | > 100 µM | 14.5 µM | 37.7 µM |
| O=C1OC(c2ccccc2)=N/C1=C\c1ccc(Oc2ccc(Cl)c(Cl)c2)cc1 |  | > 100 µM |  | > 100 µM |  | 56.9 µM |  |  |  |  |  |  |  | 58.4 µM |  | 81.6 µM |  | > 100 µM |  |  |
| Cc1ccc(S(=O)(=O)N=NC=C2c3ccccc3N(O)c3ccccc32)cc1 |  | 9.43 µM |  | 3.63 µM |  | 4.62 µM |  | 29 µM |  |  |  | 22.8 µM |  |  |  | 18.8 µM |  | 24.2 µM |  |  |
| O=C(C#Cc1ccccc1)N1c2ccccc2CC1c1c[nH]c2ccccc12 (centres undefined) |  | 66 µM |  | 24.9 µM |  | 36.2 µM |  | 25.8 µM |  |  |  | 69.6 µM |  | 31.1 µM |  | 30 µM |  | > 100 µM |  |  |
| Cl/C(N=Nc1ccccc1)=N/Nc1ccccc1 |  | > 100 µM |  |  |  | > 100 µM |  | > 100 µM |  |  |  | > 100 µM |  | > 100 µM |  |  |  | > 100 µM |  |  |
| O=c1nc(-c2ccccc2)cc(CC(O)c2ccc(Cl)c(Cl)c2)[nH]1 (centres undefined) |  | > 100 µM |  | > 100 µM |  | 76 µM |  | > 100 µM |  |  |  | > 100 µM |  | > 100 µM |  | > 100 µM |  | > 100 µM |  |  |
| O=C(O)c1cc(=O)c2c([nH]c3ccccc32)s1 |  | > 100 µM |  | > 100 µM |  | > 100 µM |  |  |  |  |  | > 100 µM |  |  |  | > 100 µM |  | > 100 µM |  |  |
| CC(=O)NC(CCCCN)C(=O)NCc1ccccc1 (centres undefined) |  | > 100 µM |  | > 100 µM |  |  |  | > 100 µM |  |  |  | > 100 µM |  | > 100 µM |  | > 100 µM |  | > 100 µM |  |  |
| CN(C)/C=N\c1ccnc(=O)[nH]1 |  | > 100 µM |  | > 100 µM |  | > 100 µM |  | > 100 µM |  |  |  | > 100 µM |  | > 100 µM |  | > 100 µM |  |  |  |  |
| N/C(=N\NS(=O)(=O)c1ccccc1)Oc1ccc(Br)cc1Br |  | > 100 µM |  | > 100 µM |  | > 100 µM |  | > 100 µM |  |  |  | > 100 µM |  | > 100 µM |  | > 100 µM |  | > 100 µM |  |  |
| Oc1c(Cl)cc(Cl)c2ccc(Cn3cc(-c4cc(C(F)(F)F)cc(C(F)(F)F)c4)nn3)nc12 | 1.25 µM | 2.5 µM | 1.58 µM | 3.55 µM |  |  | 4.93 µM | 21 µM | 22.1 µM | 71.6 µM | 1.27 µM | 2.75 µM | 1.53 µM | 2.94 µM | 2.98 µM | 10.7 µM | 8.28 µM | 21.8 µM | 1.57 µM | 3.06 µM |
| COc1ccc(Nc2nc3ccccc3c3occc23)cc1 | 5.35 µM | 13.7 µM | 2.95 µM | 10.7 µM | 10.3 µM | > 50 µM |  |  | 9.32 µM | 18.7 µM | 9.2 µM | 39.7 µM | 8.89 µM | 18.9 µM | 5.08 µM | 11.1 µM | 7.62 µM | 16.5 µM | 6.65 µM | 13.1 µM |
| Cc1cc(NC(=O)C2C3C=CC(O3)C2C(=O)O)no1 (centres undefined) |  | > 100 µM |  | 37.4 µM |  | 40 µM |  | > 100 µM |  |  |  | > 100 µM |  | 54.9 µM |  | > 100 µM |  | > 100 µM |  |  |
| CN1CCN(CCOc2ccc(-c3cnc4c(-c5cccc(F)c5)cnn4c3)cc2)CC1 | 1.66 µM | 3.02 µM | 1.52 µM | 2.92 µM | 2.1 µM | 4.36 µM |  |  | 2.47 µM | 6.14 µM | 1.93 µM | 5.75 µM | 1.49 µM | 2.88 µM | 1.69 µM | 3.08 µM | 1.72 µM | 3.8 µM | 1.74 µM | 3.28 µM |
| O=C(Nc1ccc(F)cc1F)c1cc(Cl)ccc1O | 2.09 µM | 7.68 µM | 1.54 µM | 18 µM |  |  | 1.29 µM | 5.73 µM | 2.52 µM | 13.3 µM | 0.636 µM | > 100 µM | 1.01 µM | 9.9 µM | 0.608 µM | 2.03 µM | 1.45 µM | > 100 µM | 3 µM | 69.6 µM |
| CC1(c2cc3c(cc2Br)OCO3)SCCCS1 |  | > 100 µM |  | > 100 µM |  | 65.9 µM |  | > 100 µM |  |  |  | > 100 µM |  | > 100 µM |  | 51 µM |  | > 100 µM |  |  |
| Cc1cc(C)nc(/C(=N\NC(N)=O)C(=O)Nc2nc3ccc(C)cc3s2)c1 |  | > 100 µM |  | > 100 µM |  | > 100 µM |  | > 100 µM |  |  |  | > 100 µM |  | > 100 µM |  | > 100 µM |  | > 100 µM |  |  |
